The values below come from ChEMBL document CHEMBL1134858, “Identification of a novel 1'-[5-((3,5-dichlorobenzoyl)methylamino)-3-(3,4-dichlorophenyl)-4-(methoxyimino)pentyl]-2-oxo-(1,4'-bipiperidine) as a dual NK(1)/NK(2) antagonist” (Bioorg Med Chem Lett, 2002).

The Ki is the equilibrium dissociation constant of an inhibitor or competing ligand from its target. Broadly, the bioavailability is dose-corrected exposure relative to a reference, in per cent. What is called AUC is the area under the concentration-time curve, a measure of exposure. Low values mean low exposure, high ones high exposure. Usually ED50 stands for the dose at which the effect has come halfway, by size or by number of responders. What is called inhibition in vivo is the change of the read-out against control, counted positive when it falls. Low values mean little suppression, high ones strong suppression.

Where “and” joins values, the source holds several entries; their conditions need not be identical. Identical values can stand only once.

Series [1] concerns the target T1, Substance-K receptor (Cavia porcellus, UniProt Q64077).
T1 sequence (Q64077 whole entry): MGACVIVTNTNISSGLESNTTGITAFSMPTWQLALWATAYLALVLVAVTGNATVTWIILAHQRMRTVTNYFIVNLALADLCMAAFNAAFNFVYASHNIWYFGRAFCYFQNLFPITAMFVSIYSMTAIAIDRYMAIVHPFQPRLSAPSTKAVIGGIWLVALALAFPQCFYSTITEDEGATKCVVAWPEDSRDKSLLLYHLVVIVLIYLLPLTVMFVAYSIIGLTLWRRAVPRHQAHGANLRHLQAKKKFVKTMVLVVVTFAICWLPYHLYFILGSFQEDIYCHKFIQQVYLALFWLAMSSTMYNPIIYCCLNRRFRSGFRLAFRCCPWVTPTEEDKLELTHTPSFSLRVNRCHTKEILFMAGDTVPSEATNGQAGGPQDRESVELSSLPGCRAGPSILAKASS
The series can be described thus: In vitro binding to Tachykinin receptor 2.

For series [2], the target named is T2, Substance-P receptor (Cavia porcellus, UniProt P30547). The series can be described thus: In vitro binding to Tachykinin receptor 1.
T2 sequence (P30547 whole entry): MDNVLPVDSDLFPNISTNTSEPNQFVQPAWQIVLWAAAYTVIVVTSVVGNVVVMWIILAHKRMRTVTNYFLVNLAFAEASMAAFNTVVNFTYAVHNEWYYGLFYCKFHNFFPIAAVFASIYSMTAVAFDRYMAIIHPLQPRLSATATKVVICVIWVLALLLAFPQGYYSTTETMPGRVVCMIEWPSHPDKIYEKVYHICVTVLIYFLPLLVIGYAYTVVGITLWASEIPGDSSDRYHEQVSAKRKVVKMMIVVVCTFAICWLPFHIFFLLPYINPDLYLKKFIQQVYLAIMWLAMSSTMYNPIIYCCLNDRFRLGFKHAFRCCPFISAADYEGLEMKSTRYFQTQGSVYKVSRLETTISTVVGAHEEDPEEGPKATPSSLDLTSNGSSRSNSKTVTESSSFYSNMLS
The target of series [3] is T1, Substance-K receptor. The series can be described thus: In vitro functional NK2 activity as inhibition of guinea pig bronchoconstriction. The format is tissue-based, Lung. Particulars: read-out: pA2 (converted).
The target in series [4] is T2, Substance-P receptor. The series can be described thus: In vitro functional NK1 activity as inhibition of guinea pig bronchoconstriction. The format is tissue-based, Lung. Particulars: read-out: pA2 (converted).
The nature of series [5]: Bioavailability in dog. The format is ADME, organism-based, Canis lupus familiaris. Particulars: in vivo.
A short description of series [6]: AUC in dog at 0-24 hr by peroral administration at 3 mpk. The format is ADME, organism-based, Canis lupus familiaris. On the set-up: dose 3 mpk, time < 24 hr, route oral. Particulars: plasma, po, 3 mg/kg.
In series [7] the test system is Cavia porcellus. The series can be described thus: In vivo NK1 activity in the guinea pig is characterized by the compounds ability to inhibit the increase in airway microvascular leakage (AML) produced by a SP challenge. The format is functional.
In series [8] the test system is Cavia porcellus. The series can be described thus: In vivo NK2 activity is characterized by the compounds ability to inhibit bronchoconstriction produced by a NKA challenge. The format is functional. Particulars: Lung.
The test system of series [9] is Cavia porcellus. The series can be described thus: In vivo NK1 activity in the guinea pig is characterized by the compounds ability to inhibit the increase in airway microvascular leakage (AML) produced by a SP challenge at 10 mg/kg. The format is functional.
Series [10] relates to Cavia porcellus. The series can be described thus: In vivo NK2 activity is characterized by the compounds ability to inhibit bronchoconstriction produced by a NKA challenge at 10 mg/kg. The format is functional. Particulars: Lung.
For series [11], the system named is Cavia porcellus. The series can be described thus: In vivo NK2 activity is characterized by the compounds ability to inhibit bronchoconstriction produced by a NKA challenge at 10 mpk. The format is functional. Particulars: Lung.
Series [12] addresses T1, Substance-K receptor. The series can be described thus: […] is characterized by the compound ability to inhibit guinea pig bronchoconstriction. The format is functional, Lung. Particulars: read-out: pA2 (converted).

For `CO/N=C(\CN(C)C(=O)c1cc(Cl)cc(Cl)c1)[C@@H](CCN1CCC(N2CCCC(CC(=O)N3CCOCC3)C2=O)CC1)c1ccc(Cl)c(Cl)c1` (stereo not given in full), the Ki in series [1] and in [2] was 0.8 nM in each case. The results for the Kb in series [3] and in series [4] were 126 nM and 6.31 nM, respectively.
Take `CO/N=C(\CN(C)C(=O)c1cc(Cl)cc(Cl)c1)[C@@H](CCN1CCC(N2CCCC(CC(=O)N(C)C)C2=O)CC1)c1ccc(Cl)c(Cl)c1` (stereo not given in full): the Ki in [1] amounted to 0.3 nM; in [2] it was 0.8 nM. The Kb was 39.8 nM in series [3] and 10 nM in series [4].
For `CO/N=C(\CN(C)C(=O)c1cc(Cl)cc(Cl)c1)C(CCN1CCC(N2CCCC(CC(=O)N3CC(O)C3)C2=O)CC1)c1ccc(Cl)c(Cl)c1` (stereo not given), the Ki came to 2 nM in series [1] and 3 nM in series [2]. The Kb in series [3] was 25.1 nM.
As to `CNC(=O)CC1CCCN(C2CCN(CCC(/C(CN(C)C(=O)c3cc(Cl)cc(Cl)c3)=N/OC)c3ccc(Cl)c(Cl)c3)CC2)C1=O` (stereo not given), the Ki in series [1] and in series [2] was 2 nM throughout. The Kb in series [3] is 50.1 nM.
`CO/N=C(\CN(C)C(=O)c1cc(Cl)cc(Cl)c1)[C@H](CCN1CCC(N2CCCC(CC(N)=O)C2=O)CC1)c1ccc(Cl)c(Cl)c1` (stereo not given in full) came in with a bioavailability in [5] of 37%. In addition, in [6], the AUC at 24 h was found to be 9490 ng·h/mL. Further, the ED50 in [7] amounted to 1 mg/kg; in [8] it was 4 mg/kg. The Ki in series [1] is 0.3 nM; in series [2], 0.8 nM. The Kb in series [3] and in series [4] was 10 nM each time.
In the case of `CO/N=C(\CN(C)C(=O)c1cc(Cl)cc(Cl)c1)C(CCN1CCC(N2CCCC(CC(=O)N(C)C)C2=O)CC1)c1ccc(Cl)c(Cl)c1` (stereo not given), the Ki in [1] and in series [2] was 1 nM in each case. In addition, the Kb in series [3] was 63.1 nM.
`CNC(=O)CC1CCCN(C2CCN(CC[C@H](/C(CN(C)C(=O)c3cc(Cl)cc(Cl)c3)=N/OC)c3ccc(Cl)c(Cl)c3)CC2)C1=O` (stereo not given in full): the Ki in series [1] stood at 0.9 nM; in [2] it was 1.5 nM. Further, the Kb is 39.8 nM in series [3] and 10 nM in series [4].
Take `CO/N=C(\CN(C)C(=O)c1cc(Cl)cc(Cl)c1)[C@H](CCN1CCC(N2CCCC(CC(=O)N3CCOCC3)C2=O)CC1)c1ccc(Cl)c(Cl)c1` (stereo not given in full): the inhibition in vivo at 10 mg/kg in series [9] is 47%; in series [10], 97%. Moreover, the Ki in [1] stood at 0.4 nM; in series [2], 0.7 nM. Further, the Kb in series [3] was 12.6 nM; in series [4] it was 15.8 nM.
In the case of `CO/N=C(\CN(C)C(=O)c1cc(Cl)cc(Cl)c1)C(CCN1CCC(N2CCCCC2=O)CC1)c1ccc(Cl)c(Cl)c1` (stereo not given), the Ki in [1] came out at 2 nM; in series [2] it was 5 nM. For the same molecule, in [3], the Kb is 50.1 nM.
For `CNC(=O)CC1CCCN(C2CCN(CC[C@@H](/C(CN(C)C(=O)c3cc(Cl)cc(Cl)c3)=N/OC)c3ccc(Cl)c(Cl)c3)CC2)C1=O` (stereo not given in full), in series [5], the bioavailability is 66%. The molecule further had an AUC at 24 h in series [6] of 13600 ng·h/mL. Moreover, the figures for the ED50 in series [7] and in series [8] were 1 mg/kg and 3 mg/kg, respectively. Besides, the Ki in [1] was 0.4 nM; in series [2], 1.3 nM. Also, the Kb in series [3] was 15.8 nM; in series [4], 12.6 nM.
As for `CO/N=C(\CN(C)C(=O)c1cc(Cl)cc(Cl)c1)[C@H](CCN1CCC(N2CCCC(CC(=O)N3CC(O)C3)C2=O)CC1)c1ccc(Cl)c(Cl)c1` (stereo not given in full), the figures for the inhibition in vivo at 10 mg/kg in [9] and in series [11] were 45% and 64%, respectively. For the same molecule, the Ki in [1] amounted to 0.3 nM; in series [2], 0.6 nM. In addition, the values for the Kb in series [3] and in [4] were 50.1 nM and 10 nM, respectively.
As for `CO/N=C(\CN(C)C(=O)c1cc(Cl)cc(Cl)c1)[C@@H](CCN1CCC(N2CCCC(CC(N)=O)C2=O)CC1)c1ccc(Cl)c(Cl)c1` (stereo not given in full), the values for the Ki in series [1] and in series [2] were 0.3 nM and 0.4 nM, respectively. In addition, the Kb was 50.1 nM in series [3] and 20 nM in series [4].
On to `CO/N=C(\CN(C)C(=O)c1cc(Cl)cc(Cl)c1)C(CCN1CCC(N2CCCC(CC(=O)N3CCOCC3)C2=O)CC1)c1ccc(Cl)c(Cl)c1` (stereo not given), for which the Ki in [1] and in [2] was 1 nM throughout. The Kb in series [3] is 50.1 nM.
The molecule `CO/N=C(\CN(C)C(=O)c1cc(Cl)cc(Cl)c1)[C@H](CCN1CCC(N2CCCC(CC(=O)N(C)C)C2=O)CC1)c1ccc(Cl)c(Cl)c1` (stereo not given in full) yielded an AUC at 24 h in [6] of 3460 ng·h/mL. In addition, the ED50 in [7] and in series [8] was 3 mg/kg throughout. Moreover, the Ki amounted to 0.2 nM in series [1] and 0.8 nM in series [2]. For the same molecule, the Kb in series [3] is 39.8 nM; in series [4], 12.6 nM.
For `CO/N=C(\CN(C)C(=O)c1cc(Cl)cc(Cl)c1)C(CCN1CCC(N2CCCC(CC(N)=O)C2=O)CC1)c1ccc(Cl)c(Cl)c1` (stereo not given), the Ki in series [1] worked out at 3 nM; in series [2], 2 nM. Further, the Kb in series [3] was 100 nM.
In the case of `CO/N=C(\CN(C)C(=O)c1cc(Cl)cc(Cl)c1)[C@H](CCN1CCC(N2CCCCC2=O)CC1)c1ccc(Cl)c(Cl)c1`, the bioavailability in series [5] stood at 5%. This molecule gave an AUC at 24 h in series [6] of 1220 ng·h/mL. Also, the values for the ED50 in series [7] and in series [8] were 1 mg/kg and 3 mg/kg, respectively. Besides, the Ki is 0.8 nM and 1 nM in series [1]; 1.2 nM and 1 nM in [2]. The figures for the Kb in series [3] and in series [4] were 20 nM and 10 nM, respectively.
As to `CO/N=C(\CN(C)C(=O)c1cc(Cl)cc(Cl)c1)[C@@H](CCN1CCC(N2CCCC(CC(=O)N3CC(O)C3)C2=O)CC1)c1ccc(Cl)c(Cl)c1` (stereo not given in full), the Ki is 0.6 nM in series [1] and 1.1 nM in series [2]. Moreover, the Kb in series [12] was 501 nM.
